Measurements published in ChEMBL document CHEMBL1909046, “DrugMatrix in vitro pharmacology data”.

Columns and labels:
Insulin receptor = Insulin receptor (Rattus norvegicus, UniProt P15127); format: cell membranes, Wistar, Liver, Membrane; also: in other assays of this panel Not Active means under 50% inhibition at 10 µM
[1] = target: T1, Cholecystokinin receptor type A (Homo sapiens, UniProt P32238); format: cell membranes, Membrane; conditions: 1321-n1; also: in other assays of this panel Not Active means under 50% inhibition at 10 µM
T1 sequence (P32238 whole entry): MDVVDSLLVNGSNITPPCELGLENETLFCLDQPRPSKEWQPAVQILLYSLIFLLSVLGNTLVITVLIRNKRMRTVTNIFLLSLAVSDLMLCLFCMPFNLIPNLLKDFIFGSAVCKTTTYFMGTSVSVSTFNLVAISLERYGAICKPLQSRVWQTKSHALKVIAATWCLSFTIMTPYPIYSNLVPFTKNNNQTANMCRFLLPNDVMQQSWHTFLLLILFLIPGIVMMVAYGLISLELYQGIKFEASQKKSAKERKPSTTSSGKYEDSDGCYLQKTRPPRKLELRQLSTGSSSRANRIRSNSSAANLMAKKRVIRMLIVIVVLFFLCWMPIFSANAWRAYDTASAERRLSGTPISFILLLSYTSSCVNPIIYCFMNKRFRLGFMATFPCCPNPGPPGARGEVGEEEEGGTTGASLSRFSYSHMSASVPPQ

[2] = DRUGMATRIX: Serotonin (5-Hydroxytryptamine) 5-HT3 radioligand binding (ligand: [3H] GR-65630); format: cell membranes, Membrane; conditions: hek293; Not Active = under 50% inhibition at 10 µM
Androgen receptor = target: T2, Androgen receptor (Rattus norvegicus, UniProt P15207); also: in other assays of this panel Not Active means under 50% inhibition at 10 µM
T2 sequence (P15207 whole entry): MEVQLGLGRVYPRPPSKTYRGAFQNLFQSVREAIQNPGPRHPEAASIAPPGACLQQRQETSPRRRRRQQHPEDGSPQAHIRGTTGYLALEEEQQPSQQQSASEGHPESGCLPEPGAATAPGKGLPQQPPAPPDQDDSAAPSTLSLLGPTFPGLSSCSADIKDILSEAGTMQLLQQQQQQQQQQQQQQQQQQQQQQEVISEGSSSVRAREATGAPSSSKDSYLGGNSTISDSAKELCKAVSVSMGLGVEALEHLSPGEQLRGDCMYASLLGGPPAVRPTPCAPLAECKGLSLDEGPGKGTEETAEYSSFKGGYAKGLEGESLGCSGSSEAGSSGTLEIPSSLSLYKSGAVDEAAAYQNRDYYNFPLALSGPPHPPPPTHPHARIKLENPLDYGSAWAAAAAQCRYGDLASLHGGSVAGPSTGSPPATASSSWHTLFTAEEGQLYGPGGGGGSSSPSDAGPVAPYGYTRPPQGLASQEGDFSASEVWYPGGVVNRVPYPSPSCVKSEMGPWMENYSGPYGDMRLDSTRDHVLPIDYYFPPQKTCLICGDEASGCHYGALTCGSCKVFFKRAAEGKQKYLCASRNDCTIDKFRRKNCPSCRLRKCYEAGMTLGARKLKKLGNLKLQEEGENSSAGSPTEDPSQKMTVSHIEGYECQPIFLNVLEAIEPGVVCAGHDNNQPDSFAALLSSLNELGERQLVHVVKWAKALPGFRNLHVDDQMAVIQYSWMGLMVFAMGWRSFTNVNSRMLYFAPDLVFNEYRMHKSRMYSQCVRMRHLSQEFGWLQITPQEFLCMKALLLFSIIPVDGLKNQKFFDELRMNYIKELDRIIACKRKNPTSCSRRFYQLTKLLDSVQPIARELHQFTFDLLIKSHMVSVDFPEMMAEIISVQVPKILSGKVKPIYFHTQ

[3] = target: T3, 5-hydroxytryptamine receptor 1A (Rattus norvegicus, UniProt P19327); format: cell membranes, CHO-K1, Membrane; also: in other assays of this panel Not Active means under 50% inhibition at 10 µM
T3 sequence (P19327 whole entry): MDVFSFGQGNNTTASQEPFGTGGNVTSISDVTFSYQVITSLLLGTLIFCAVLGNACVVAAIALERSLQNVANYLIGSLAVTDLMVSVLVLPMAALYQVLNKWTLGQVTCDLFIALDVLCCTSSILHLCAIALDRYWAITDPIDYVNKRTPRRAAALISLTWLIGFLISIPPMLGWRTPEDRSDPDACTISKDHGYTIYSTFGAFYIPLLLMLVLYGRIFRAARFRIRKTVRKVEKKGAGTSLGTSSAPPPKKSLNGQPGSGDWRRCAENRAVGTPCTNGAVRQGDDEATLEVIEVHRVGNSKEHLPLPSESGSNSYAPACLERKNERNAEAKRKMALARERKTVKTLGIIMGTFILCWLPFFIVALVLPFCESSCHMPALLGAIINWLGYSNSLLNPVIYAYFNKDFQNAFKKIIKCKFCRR

[4] = target: Mitogen-activated protein kinase 1 (Homo sapiens, UniProt P28482); experiment: DRUGMATRIX: Protein Serine/Threonine Kinase, ERK2 enzyme inhibition (substrate: Myelin Basic Protein); parameters: species or system Escherichia coli; conditions: Not Active = under 50% inhibition at 10 µM
Sequence of Mitogen-activated protein kinase 1 (P28482 whole entry): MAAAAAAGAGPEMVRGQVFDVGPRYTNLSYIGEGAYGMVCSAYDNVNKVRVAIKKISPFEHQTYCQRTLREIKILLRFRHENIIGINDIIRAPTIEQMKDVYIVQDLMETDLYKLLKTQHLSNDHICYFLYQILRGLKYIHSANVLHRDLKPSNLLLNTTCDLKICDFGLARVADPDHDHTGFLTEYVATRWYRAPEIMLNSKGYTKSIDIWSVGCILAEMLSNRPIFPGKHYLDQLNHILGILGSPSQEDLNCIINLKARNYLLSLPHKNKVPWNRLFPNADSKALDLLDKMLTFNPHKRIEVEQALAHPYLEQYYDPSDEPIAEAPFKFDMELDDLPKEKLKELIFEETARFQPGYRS

Mu-type opioid receptor = Mu-type opioid receptor (Homo sapiens, UniProt P35372); experiment: DRUGMATRIX: Opiate mu (OP3, MOP) radioligand binding (ligand: [3H] Diprenorphine); format: cell membranes, CHO-K1, Membrane; conditions: cho-k1; Not Active = under 50% inhibition at 10 µM
Sequence of Mu-type opioid receptor (P35372 whole entry): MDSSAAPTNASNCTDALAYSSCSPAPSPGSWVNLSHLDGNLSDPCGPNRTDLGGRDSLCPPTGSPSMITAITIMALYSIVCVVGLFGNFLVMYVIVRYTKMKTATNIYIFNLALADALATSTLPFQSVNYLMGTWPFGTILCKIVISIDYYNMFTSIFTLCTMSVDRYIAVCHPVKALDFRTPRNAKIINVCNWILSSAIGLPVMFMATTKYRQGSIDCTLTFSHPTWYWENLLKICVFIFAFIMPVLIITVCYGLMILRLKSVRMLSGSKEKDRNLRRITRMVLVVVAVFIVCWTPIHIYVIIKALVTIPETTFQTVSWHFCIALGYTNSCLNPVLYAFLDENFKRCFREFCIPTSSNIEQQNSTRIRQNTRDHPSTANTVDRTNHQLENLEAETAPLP

Sequence of Insulin receptor (P15127 27-759 limits assumed): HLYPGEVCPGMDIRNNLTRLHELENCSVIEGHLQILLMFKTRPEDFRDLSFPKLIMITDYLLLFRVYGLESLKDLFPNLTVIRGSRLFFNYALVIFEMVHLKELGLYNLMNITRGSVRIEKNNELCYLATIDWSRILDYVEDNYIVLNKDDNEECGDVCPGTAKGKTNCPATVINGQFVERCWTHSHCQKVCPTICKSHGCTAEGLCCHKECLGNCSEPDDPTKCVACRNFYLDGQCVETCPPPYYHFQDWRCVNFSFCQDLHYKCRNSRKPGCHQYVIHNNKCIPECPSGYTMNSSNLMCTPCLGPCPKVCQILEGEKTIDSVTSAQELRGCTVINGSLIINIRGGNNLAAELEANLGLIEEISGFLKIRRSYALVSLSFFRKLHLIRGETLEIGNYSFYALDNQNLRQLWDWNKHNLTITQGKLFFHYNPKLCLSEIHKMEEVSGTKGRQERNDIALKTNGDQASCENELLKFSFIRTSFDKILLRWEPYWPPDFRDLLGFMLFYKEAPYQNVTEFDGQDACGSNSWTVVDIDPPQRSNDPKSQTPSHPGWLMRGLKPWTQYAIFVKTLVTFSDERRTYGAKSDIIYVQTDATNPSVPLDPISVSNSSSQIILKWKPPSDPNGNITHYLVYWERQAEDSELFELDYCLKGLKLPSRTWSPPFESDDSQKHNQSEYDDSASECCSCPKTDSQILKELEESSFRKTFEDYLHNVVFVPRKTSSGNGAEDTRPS
Sequence of Insulin receptor (P15127 764-1383 limits assumed): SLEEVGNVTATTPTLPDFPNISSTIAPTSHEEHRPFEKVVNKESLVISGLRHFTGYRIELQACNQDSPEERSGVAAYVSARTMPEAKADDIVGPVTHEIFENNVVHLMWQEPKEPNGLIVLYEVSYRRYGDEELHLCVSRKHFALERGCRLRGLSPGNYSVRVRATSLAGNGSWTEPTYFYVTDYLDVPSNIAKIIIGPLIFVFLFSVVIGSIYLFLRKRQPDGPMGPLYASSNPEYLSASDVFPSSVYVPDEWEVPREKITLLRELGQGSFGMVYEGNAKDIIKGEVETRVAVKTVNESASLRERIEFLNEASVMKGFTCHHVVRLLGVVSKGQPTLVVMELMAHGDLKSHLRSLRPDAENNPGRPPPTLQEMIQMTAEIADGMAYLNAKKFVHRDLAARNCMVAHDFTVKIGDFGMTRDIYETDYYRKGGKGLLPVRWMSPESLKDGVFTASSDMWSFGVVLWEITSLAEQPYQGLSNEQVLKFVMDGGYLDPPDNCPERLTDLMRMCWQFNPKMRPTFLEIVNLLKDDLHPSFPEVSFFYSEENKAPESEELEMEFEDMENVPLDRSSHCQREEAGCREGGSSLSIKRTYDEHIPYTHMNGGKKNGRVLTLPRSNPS

Row | Compound | IC50 (Insulin receptor) | Ki (Insulin receptor) | IC50 [1] | Ki [1] | IC50 [2] | Ki [2] | IC50 (Androgen receptor) | Ki (Androgen receptor) | IC50 ([3]; cho-k1) | Ki ([3]; cho-k1) | IC50 [4] | Ki [4] | IC50 (Mu-type opioid receptor) | IC50 ([4]; read-out: IC50) | IC50 ([3]; read-out: IC50) | Ki ([3]; read-out: Ki) | IC50 (Insulin receptor; read-out: IC50) | Ki (Insulin receptor; read-out: Ki)
1 | POLYVINYL ALCOHOL | Not Active | Not Active | Not Active | Not Active | Not Active | Not Active | Not Active | Not Active | Not Active | Not Active | Not Active | Not Active | – | – | – | – | – | –
2 | CN(Cc1cnc2nc(N)nc(N)c2n1)c1ccc(C(=O)N[C@@H](CCC(=O)O)C(=O)O)cc1 [METHOTREXATE] | Not Active | – | Not Active | – | Not Active | Not Active | Not Active | – | Not Active | – | Not Active | – | Not Active | – | – | – | – | –
3 | C[C@@H]1CC[C@H]2[C@@H](C)C(=O)O[C@@H]3O[C@@]4(C)CC[C@@H]1[C@]32OO4 [ARTEMISININ] | Not Active | – | Not Active | – | Not Active | Not Active | Not Active | – | Not Active | – | Not Active | – | Not Active | – | – | – | – | –
4 | CCCCCC[C@H]1C(=O)O[C@H](C)[C@H](NC(=O)c2cccc(NC=O)c2O)C(=O)O[C@@H](C)[C@@H]1OC(=O)CC(C)C [ANTIMYCIN A] | Not Active | – | Not Active | – | Not Active | Not Active | Not Active | – | Not Active | – | – | – | Not Active | 2120 nM | – | – | – | –
5 | COc1ccc(Cc2nccc3cc(OC)c(OC)cc23)cc1OC [PAPAVERINE] | Not Active | – | Not Active | – | Not Active | Not Active | Not Active | – | Not Active | – | Not Active | – | – | – | – | – | – | –
6 | CNC(=C[N+](=O)[O-])NCCSCc1csc(CN(C)C)n1 [NIZATIDINE] | Not Active | – | Not Active | – | Not Active | Not Active | Not Active | – | Not Active | – | Not Active | – | Not Active | – | – | – | – | –
7 | COc1ccccc1OCC(O)CO (stereo not drawn) [GUAIFENESIN] | Not Active | – | Not Active | – | Not Active | Not Active | Not Active | – | Not Active | – | Not Active | – | Not Active | – | – | – | – | –
8 | O=C(c1ccccc1Cl)N1CCC(Cc2ccccc2)CC1 | Not Active | – | Not Active | – | Not Active | Not Active | Not Active | – | Not Active | – | Not Active | – | Not Active | – | – | – | – | –
9 | Cc1cccc(Nc2cc(Cl)nc(SCC(=O)O)n2)c1C [PIRINIXIC ACID] | Not Active | – | Not Active | – | Not Active | Not Active | Not Active | – | Not Active | – | Not Active | – | Not Active | – | – | – | – | –
10 | Cc1cn[nH]c1 [FOMEPIZOLE] | Not Active | – | Not Active | – | Not Active | Not Active | Not Active | – | Not Active | – | Not Active | – | Not Active | – | – | – | – | –
11 | O=c1cc(-c2ccccc2)oc2ccc3ccccc3c12 [BETA-NAPHTHOFLAVONE] | Not Active | – | Not Active | – | Not Active | Not Active | Not Active | – | Not Active | – | Not Active | – | Not Active | – | – | – | – | –
12 | COBALT(II) ACETYLACETONATE | Not Active | Not Active | Not Active | Not Active | Not Active | Not Active | Not Active | Not Active | Not Active | Not Active | Not Active | Not Active | – | – | – | – | – | –
13 | O=C(O)Cc1ccc(-c2ccccc2)cc1 [FELBINAC] | Not Active | – | Not Active | – | Not Active | Not Active | Not Active | – | Not Active | – | Not Active | – | Not Active | – | – | – | – | –
14 | N=C(N)N/N=C/c1c(Cl)cccc1Cl [GUANABENZ] | Not Active | – | Not Active | – | Not Active | Not Active | Not Active | – | – | – | Not Active | – | Not Active | – | 2070 nM | 1180 nM | – | –
15 | C[C@]12CCC(=O)C=C1CC[C@@H]1[C@@H]2[C@@H](O)C[C@@]2(C)[C@H]1CC[C@]2(O)C(=O)CO [HYDROCORTISONE] | Not Active | – | Not Active | – | Not Active | Not Active | Not Active | – | Not Active | – | Not Active | – | Not Active | – | – | – | – | –
16 | OCCO [ETHYLENE GLYCOL] | Not Active | – | Not Active | – | Not Active | Not Active | Not Active | – | Not Active | – | Not Active | – | Not Active | – | – | – | – | –
17 | CCc1oc2ccccc2c1C(=O)c1cc(Br)c(O)c(Br)c1 [BENZBROMARONE] | Not Active | – | Not Active | – | Not Active | Not Active | Not Active | – | Not Active | – | – | – | Not Active | 1950 nM | – | – | – | –
18 | CC(C)(Oc1ccc(C2CC2(Cl)Cl)cc1)C(=O)O (stereo not drawn) [CIPROFIBRATE] | Not Active | – | Not Active | – | Not Active | Not Active | Not Active | – | Not Active | – | Not Active | – | Not Active | – | – | – | – | –
19 | CC(C)(C)c1ccc(S(=O)(=O)/C=C/C#N)cc1 [BAY-11-7085] | Not Active | – | Not Active | – | Not Active | Not Active | Not Active | – | Not Active | – | Not Active | – | Not Active | – | – | – | – | –
20 | CC(=O)OCC(CCn1cnc2cnc(N)nc21)COC(C)=O [FAMCICLOVIR] | Not Active | – | Not Active | – | Not Active | Not Active | Not Active | – | Not Active | – | Not Active | – | Not Active | – | – | – | – | –
21 | C[C@H]([C@](O)(Cn1cncn1)c1ccc(F)cc1F)S(C)(=O)=O [GENACONAZOLE] | Not Active | – | Not Active | – | Not Active | Not Active | Not Active | – | Not Active | – | Not Active | – | Not Active | – | – | – | – | –
22 | Clc1cc2c(cc1Cl)Oc1cc(Cl)c(Cl)cc1O2 [2,3,7,8-TETRACHLORODIBENZO-P-DIOXIN] | Not Active | – | Not Active | – | Not Active | Not Active | Not Active | – | Not Active | – | Not Active | – | – | – | – | – | – | –
23 | Nn1nnc2ccccc21 | Not Active | – | Not Active | – | Not Active | Not Active | Not Active | – | Not Active | – | Not Active | – | Not Active | – | – | – | – | –
24 | INSULIN HUMAN | – | – | Not Active | Not Active | Not Active | Not Active | Not Active | Not Active | Not Active | Not Active | Not Active | Not Active | – | – | – | – | 1.93 nM | 1.82 nM
